In PubChem BioAssay (NCI) one finds TGI data, which are given here for 8 compounds.

Test systems include A549 NSCLC; COLO 205 colon; EKVX NSCLC; HCC-2998 colon; HCT-116 colon; HCT-15 colon; HOP-62 NSCLC; HOP-92 NSCLC; LOX IMVI melanoma; NCI-H226 lung; NCI-H23 lung; OVCAR-5 ovarian; OVCAR-8 ovarian; RXF 393 renal; SF-295 CNS; SF-539 CNS; U251 CNS.
Experiment in all cases: DTP human tumour cell line panel, 48 h

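Five concentrations, 48 hours, 96-well plates. The concentration for full growth arrest is given as TGI.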

As for `CC1=NN2C(c3ccc([N+](=O)[O-])cc3)=CSC2=NC(C)(C)C1`, the TGI in the assay with A549 NSCLC, in the assay on COLO 205 colon, in the assay with EKVX NSCLC, in the assay on HCC-2998 colon, in the assay with HCT-116 colon and in the assay with HCT-15 colon was above 100 µM throughout. The TGI in the assay with HOP-62 NSCLC, in the assay on HOP-92 NSCLC, with LOX IMVI melanoma, in the assay on NCI-H226 lung, in the assay on NCI-H23 lung and in the assay with OVCAR-5 ovarian was above 100 µM in each case. For the same compound, the TGI in the assay on OVCAR-8 ovarian, in the assay on RXF 393 renal, with SF-295 CNS, in the assay on SF-539 CNS and with U251 CNS was above 100 µM throughout.

For `CC(C)(C)[C@H]1CO[C@]2(c3ccccc3)[C@@H]3C[C@@H]3C(=O)N12`, the concentration for total growth inhibition (TGI) in the assay with A549 NSCLC, in the assay on COLO 205 colon, in the assay with EKVX NSCLC, with HCC-2998 colon, in the assay on HCT-15 colon and in the assay on HOP-62 NSCLC was above 100 µM in each case. Also, the TGI in the assay on HOP-92 NSCLC, with LOX IMVI melanoma, in the assay with NCI-H226 lung, with NCI-H23 lung, with OVCAR-5 ovarian and in the assay with OVCAR-8 ovarian was above 100 µM throughout. For the same compound, the TGI with RXF 393 renal, in the assay on SF-295 CNS, in the assay on SF-539 CNS and with U251 CNS was above 100 µM each time.

Turning to `CC(C)OC/N=C(/N)NC#N`, the TGI was above 100 µM in the assay on A549 NSCLC; above 100 µM with COLO 205 colon; above 100 µM with EKVX NSCLC; above 100 µM with HCC-2998 colon; above 100 µM in the assay with HCT-116 colon; 33.7 µM in the assay with HCT-15 colon. In addition, the TGI with HOP-62 NSCLC was above 100 µM; in the assay with HOP-92 NSCLC, above 100 µM; in the assay with LOX IMVI melanoma, 43.7 µM; with NCI-H226 lung, above 100 µM; in the assay with NCI-H23 lung, above 100 µM; in the assay with OVCAR-5 ovarian, above 100 µM. The TGI in the assay on OVCAR-8 ovarian, with RXF 393 renal, with SF-295 CNS, in the assay with SF-539 CNS and in the assay with U251 CNS was above 100 µM each time.

Take `Nc1nc(N)c2ncn(CCOC(c3ccccc3)P(=O)(O)O)c2n1` (stereo not given): the TGI with A549 NSCLC, with COLO 205 colon, in the assay on EKVX NSCLC, in the assay on HCC-2998 colon, in the assay on HCT-116 colon and in the assay with HCT-15 colon was above 100 µM each time. The TGI with LOX IMVI melanoma, with NCI-H226 lung, in the assay on NCI-H23 lung, in the assay on OVCAR-5 ovarian, with OVCAR-8 ovarian and with RXF 393 renal was above 100 µM throughout. Besides, the concentration for total growth inhibition (TGI) in the assay with SF-295 CNS, in the assay on SF-539 CNS and with U251 CNS was above 100 µM throughout.

As to `COC(=O)CC(C(C(=O)OC)C(=O)OC)N1C(=O)OC(c2ccccc2)C1c1ccccc1` (stereo not given), the TGI in the assay with A549 NSCLC was above 100 µM; in the assay on COLO 205 colon it was above 100 µM; in the assay on EKVX NSCLC it was above 100 µM; with HCC-2998 colon, 93.1 µM; with HCT-116 colon it was above 100 µM; with HCT-15 colon it was above 100 µM. Moreover, the TGI in the assay on HOP-62 NSCLC, in the assay on HOP-92 NSCLC, in the assay with LOX IMVI melanoma, with NCI-H226 lung, in the assay with NCI-H23 lung and with OVCAR-5 ovarian was above 100 µM each time. Moreover, the TGI in the assay with OVCAR-8 ovarian, in the assay on RXF 393 renal, in the assay on SF-295 CNS, with SF-539 CNS and with U251 CNS was above 100 µM each time.

Consider `COc1cc2c(oc(=O)c3cc4cc([Si](C)(C)C)oc4c(OC)c32)c2cccc(O)c12`, for which the TGI in the assay with A549 NSCLC, with COLO 205 colon, with EKVX NSCLC, in the assay with HCC-2998 colon, with HCT-116 colon and in the assay with HCT-15 colon was above 100 µM in each case. Moreover, the TGI in the assay with HOP-62 NSCLC, with HOP-92 NSCLC, in the assay with LOX IMVI melanoma, with NCI-H226 lung, with NCI-H23 lung and in the assay with OVCAR-5 ovarian was above 100 µM each time. Also, the TGI in the assay on OVCAR-8 ovarian, with RXF 393 renal, in the assay on SF-295 CNS, in the assay on SF-539 CNS and in the assay with U251 CNS was above 100 µM throughout.

Turning to `CCN(CC)C(=S)SCC(=O)Nc1nc2c(s1)CCCC2`, the TGI in the assay on A549 NSCLC, with COLO 205 colon, in the assay with HCC-2998 colon, with HCT-116 colon, in the assay on HCT-15 colon and with HOP-62 NSCLC was above 100 µM each time. Also, the TGI in the assay with HOP-92 NSCLC, in the assay on LOX IMVI melanoma, in the assay on NCI-H226 lung, in the assay with NCI-H23 lung, in the assay with OVCAR-5 ovarian and in the assay on OVCAR-8 ovarian was above 100 µM each time. The TGI in the assay with SF-295 CNS, in the assay with SF-539 CNS and in the assay with U251 CNS was above 100 µM in each case.

For `CC1(C)C(=O)C(C)(C)C1=NNC(N)=S`, the TGI in the assay on A549 NSCLC, with COLO 205 colon, with HCC-2998 colon, in the assay with HCT-116 colon, in the assay with HCT-15 colon and in the assay on HOP-62 NSCLC was above 100 µM throughout. Further, the TGI with HOP-92 NSCLC, with LOX IMVI melanoma, in the assay with NCI-H226 lung, with NCI-H23 lung, in the assay on OVCAR-5 ovarian and in the assay on OVCAR-8 ovarian was above 100 µM each time. Besides, the concentration for total growth inhibition (TGI) in the assay with RXF 393 renal, in the assay with SF-295 CNS, with SF-539 CNS and in the assay on U251 CNS was above 100 µM throughout.

As a reminder, the TGI is the concentration at which net growth stops. Low readings indicate more potent growth arrest, high ones less potent growth arrest.
